Test systems include 786-0 renal; DMS 114 small cell lung; DMS 273 small cell lung; EKVX NSCLC; IGROV1 ovarian; M14 melanoma; NCI-H522 lung; SNB-75 CNS; NCI-H460 lung; HCC-2998 colon.
Common to all, as to experiment: inhibition of tumour cell growth, NCI panel, 48 h

Several values for one entry are separate records, joined by “and”; a condition that tells them apart may be missing. Identical values can stand only once.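 Results reflect a 48-hour exposure of cells in 96-well plates to compound at five concentrations. GI50 is the concentration that inhibits growth by half. At the TGI there is no net growth.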 Bounds are passed on as bounds.

Turning to `N#C/C(=C1\OC(=N)C(c2ccc(Cl)cc2Cl)C1=O)c1ccc(Cl)cc1Cl` (stereo not drawn), the TGI with 786-0 renal, with DMS 114 small cell lung, in the assay on DMS 273 small cell lung, in the assay with EKVX NSCLC, in the assay on IGROV1 ovarian and with M14 melanoma was greater than 100 µM throughout. Besides, the TGI with NCI-H522 lung and in the assay with SNB-75 CNS was greater than 100 µM each time.
As to `O=C(CO)C1CC2C=CC1C2` (stereo not drawn), the TGI in the assay on 786-0 renal, in the assay on DMS 114 small cell lung, with DMS 273 small cell lung, with EKVX NSCLC, with IGROV1 ovarian and with M14 melanoma was greater than 100 µM in each case. Also, the TGI in the assay with NCI-H460 lung, in the assay on NCI-H522 lung and with SNB-75 CNS was greater than 100 µM in each case.
For `COc1c(OC(C)C)cc2cc(O)c(C(=O)NC3Cc4ccc(c(Cl)n4)O[C@@H]4C=C5C#C/C(=C\C#CC6OC56C4OC4CC(C)(O)C(O)C(C)O4)C(OC4CC(O)C(N(C)C)C(C)O4)COC3=O)cc2c1OC` (stereo partly drawn), the GI50 in the assay on 786-0 renal was 7.1 µM and 0.244 µg/mL; in the assay with DMS 114 small cell lung it was 0.926 µg/mL; in the assay with DMS 273 small cell lung, 0.279 µg/mL; with EKVX NSCLC it was > 36.3 µM and 37.5 µg/mL; with HCC-2998 colon, 21 µg/mL; in the assay on IGROV1 ovarian, > 36.3 µM and 37.5 µg/mL. Besides, the GI50 in the assay on M14 melanoma is 32.7 µM and 2.8 µg/mL; in the assay on NCI-H460 lung it was 3.81 µM and 0.0528 µg/mL; with NCI-H522 lung it was 29.6 µM and 1.25 µg/mL; with SNB-75 CNS, 4.43 µg/mL. The TGI is > 36.3 µM and 2.79 µg/mL with 786-0 renal; 10.4 µg/mL in the assay with DMS 114 small cell lung; 12.7 µg/mL in the assay with DMS 273 small cell lung; > 36.3 µM and 37.5 µg/mL in the assay with EKVX NSCLC; > 36.3 µM and 37.5 µg/mL in the assay on HCC-2998 colon; > 36.3 µM and 37.5 µg/mL in the assay on IGROV1 ovarian. In addition, the TGI is > 36.3 µM and 21.4 µg/mL in the assay with M14 melanoma; > 36.3 µM and 7.13 µg/mL in the assay with NCI-H460 lung; > 36.3 µM and 15.8 µg/mL in the assay on NCI-H522 lung; > 36.3 µM and 19.1 µg/mL in the assay with SNB-75 CNS.
Regarding `COc1c(CC=C(C)C)c(O)c(C(CC(C)C)c2c(O)c(CC=C(C)C)c(O)c(C(C)=O)c2O)c(O)c1C(C)=O` (stereo not drawn), the TGI was found to be 11.9 µM in the assay with 786-0 renal; 0.575 µM in the assay with DMS 114 small cell lung; 1.33 µM in the assay on DMS 273 small cell lung; 11.4 µM in the assay with EKVX NSCLC; 1.69 µM in the assay with HCC-2998 colon; 13.4 µM in the assay on IGROV1 ovarian. Also, the TGI with M14 melanoma is 5.72 µM; in the assay on NCI-H460 lung, 10.2 µM; in the assay on NCI-H522 lung it was 1.48 µM; in the assay on SNB-75 CNS, 8.32 µM.
Take `CC(=O)CC(=O)CCC(=O)Nc1cccc(C(F)(F)F)c1`: the TGI with 786-0 renal, in the assay on DMS 114 small cell lung, in the assay with DMS 273 small cell lung, in the assay with EKVX NSCLC, in the assay with HCC-2998 colon and in the assay on IGROV1 ovarian was greater than 100 µM throughout. Besides, the TGI in the assay on M14 melanoma, in the assay with NCI-H460 lung and with NCI-H522 lung was greater than 100 µM each time.
Consider `CC(=O)[CH-]C(C)=O.CC(=O)[CH-]C(C)=O.CC(=O)[CH-]C(C)=O.[Ga+3]`, for which the GI50 was greater than 100000 nM in the assay with 786-0 renal; greater than 100 µM with DMS 114 small cell lung; greater than 100000 nM in the assay with DMS 273 small cell lung; greater than 100000 nM in the assay on EKVX NSCLC; greater than 100000 nM in the assay with HCC-2998 colon; greater than 100 µM with IGROV1 ovarian. Further, the GI50 in the assay with M14 melanoma is greater than 100000 nM; in the assay with NCI-H460 lung it was greater than 100000 nM; with NCI-H522 lung, greater than 100000 nM; in the assay on SNB-75 CNS it was greater than 100 µM. The TGI with 786-0 renal, in the assay with DMS 114 small cell lung, in the assay on DMS 273 small cell lung, in the assay on EKVX NSCLC, in the assay with HCC-2998 colon and with IGROV1 ovarian was greater than 100 µM each time. In addition, the TGI in the assay with M14 melanoma, with NCI-H460 lung, with NCI-H522 lung and in the assay with SNB-75 CNS was greater than 100 µM throughout.
As to `CC(C)OC(=O)C1Cc2c([nH]c3ccccc23)C(c2ccccc2)N1` (stereo not drawn), the TGI in the assay with 786-0 renal, in the assay on DMS 114 small cell lung, with DMS 273 small cell lung, with EKVX NSCLC, in the assay with HCC-2998 colon and with IGROV1 ovarian was greater than 100 µM each time. Further, the TGI with M14 melanoma is greater than 100 µM; in the assay with NCI-H460 lung, greater than 100 µM; with NCI-H522 lung, greater than 100 µM; in the assay on SNB-75 CNS, 86.5 µM.
As for `C/C(=N\NC(=S)N1CCN(c2ccccn2)CC1)c1ncccn1`, the GI50 in the assay with 786-0 renal is 74.2 nM; in the assay with DMS 273 small cell lung, 31.1 nM; in the assay on EKVX NSCLC, 49.4 nM; with HCC-2998 colon it was 177 nM; in the assay on IGROV1 ovarian it was less than 0.0121 µM; with M14 melanoma, 93.8 nM. Moreover, the GI50 was 53.8 nM with NCI-H460 lung, 85.9 nM in the assay on NCI-H522 lung and 4.48 µM in the assay on SNB-75 CNS. The TGI is 15.7 µM in the assay with 786-0 renal; 0.271 µM and 1.08 µM in the assay on DMS 114 small cell lung; 3.71 µM and 15.2 µM with DMS 273 small cell lung; 5.2 µM and 12.8 µM in the assay with EKVX NSCLC; 5.21 µM and 13.5 µM in the assay with HCC-2998 colon; 4.31 µM and 16.3 µM in the assay with IGROV1 ovarian. Also, the TGI is 6.06 µM and 2.61 µM in the assay with M14 melanoma; 5.88 µM and 14 µM in the assay on NCI-H460 lung; 1.45 µM and 2.06 µM in the assay with NCI-H522 lung; 20.3 µM in the assay with SNB-75 CNS.
For `Cc1ccc(C2=Nc3ccccc3SC(c3cccc4c3OCO4)C2)cc1` (stereo not drawn), the TGI is 39.9 µM with 786-0 renal; 40.2 µM in the assay with DMS 273 small cell lung; 38.7 µM with EKVX NSCLC; 41.3 µM in the assay on HCC-2998 colon; 42.4 µM in the assay with IGROV1 ovarian; 34.9 µM in the assay with M14 melanoma. In addition, the figures for the TGI with NCI-H460 lung, with NCI-H522 lung and with SNB-75 CNS were greater than 100 µM, 31 µM and 28.8 µM, respectively.
`CC(C)(C)c1cc(C(=O)O)c2c(c1)C(=O)OC2(c1ccccc1)c1ccccc1C(=O)O` (stereo not drawn): the TGI in the assay with 786-0 renal, in the assay on DMS 114 small cell lung, with DMS 273 small cell lung, with EKVX NSCLC, in the assay on HCC-2998 colon and with IGROV1 ovarian was greater than 100 µM in each case. The TGI with M14 melanoma, in the assay with NCI-H460 lung and in the assay on SNB-75 CNS was greater than 100 µM each time. Further, the GI50 with IGROV1 ovarian was greater than 100 µM.
Turning to `O=C(c1c(O)cc(O)cc1O)C1Cc2ccccc21` (stereo not drawn), the TGI in the assay on 786-0 renal, in the assay on DMS 114 small cell lung, with DMS 273 small cell lung, with HCC-2998 colon, with IGROV1 ovarian and in the assay with M14 melanoma was greater than 100 µM each time. For the same molecule, the results for the TGI with NCI-H460 lung, in the assay with NCI-H522 lung and in the assay on SNB-75 CNS were greater than 100 µM, greater than 100 µM and 60.9 µM, respectively.
